Results reported in patent US9403835B2, “Tetraaza-cyclopenta[a]indenyl and their use as positive allosteric modulators” (Merck Patent GmbH, priority 2011, dated 2016).

What was measured:
[1] = molecular target: T1, muscarinic M1 receptor (Homo sapiens, UniProt P11229); assay: M1 PAM Assay (IP-One HTRF, IP1 in M1-CHO cells with EC20 of acetylcholine); format: cell-based; conditions: 1 hour at room temperature, IP1 readout
T1 construct: expressed in transfected cells; host or cells: CHO (M1-CHO cells)
T1 sequence (P11229 1-460): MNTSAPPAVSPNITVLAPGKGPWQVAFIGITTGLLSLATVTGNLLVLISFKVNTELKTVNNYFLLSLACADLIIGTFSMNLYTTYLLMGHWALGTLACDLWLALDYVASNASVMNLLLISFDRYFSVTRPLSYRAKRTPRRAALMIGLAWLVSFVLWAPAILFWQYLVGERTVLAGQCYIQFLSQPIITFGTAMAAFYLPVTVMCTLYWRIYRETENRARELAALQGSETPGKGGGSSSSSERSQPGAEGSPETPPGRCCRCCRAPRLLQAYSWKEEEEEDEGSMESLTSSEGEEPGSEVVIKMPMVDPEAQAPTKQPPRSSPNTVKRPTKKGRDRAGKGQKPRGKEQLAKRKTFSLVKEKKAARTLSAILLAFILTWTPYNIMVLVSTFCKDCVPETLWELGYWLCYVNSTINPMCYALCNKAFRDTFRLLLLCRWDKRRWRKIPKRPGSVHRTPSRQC
Protocol: M1-CHO cells are plated in culture medium (HAM's F12, P/S, 10% FCS) on the day before the experiment with 10 000 cells/well in a 384 well plate (3750 Corning White 384 w plate with lid). On the day of experiment, cells are washed with PBS and IPone buffer is added (glucose 5.5 mM, NaCl 146 mM, MgCl2 0.5 mM, HEPES 10 mM, LiCl 50 mM, CaCl2 1 mM, KCl 4.2 mM). Then diluted compounds (1% DMSO final concentration) are added together with EC20 of acetylcholine and incubated with the cells for 1 hour at room temperature. The intracellular concentration of IP1 is then measured using the IP-One HTRF assay from Cisbio.

| SMILES | EC50 [1] [nM] | melting point [°C] |
| --- | --- | --- |
| CCOc1ccc(Br)cc1C(=O)N1Cc2nn3c(C)c(C)c(C)nc3c2C1 [Example 45, (5-bromo-2-ethoxy-phenyl)-(5,6,7-trimethyl-1H,3H-2,4,7a,8-tetraaza-cyclopenta[a]inden-2-yl)-methanone] | 1000 to 2000 | 208 to 215 |
| COc1c(F)cc(F)cc1C(=O)N1Cc2nn3c(C)c(Cl)c(C)nc3c2C1 [Example 16, (6-chloro-5,7-dimethyl-1H,3H-2,4,7a,8-tetraaza-cyclopenta[a]inden-2-yl)-(3,5-difluoro-2-methoxy-phenyl)-methanone] | 200 to 1000 | 185 to 187 |
| CC(C)Oc1ccccc1C(=O)N1Cc2nn3cc(Cl)cnc3c2C1 [Example 42, (6-chloro-1H,3H-2,4,7a,8-tetraaza-cyclopenta[a]inden-2-yl)-(2-isopropoxy-phenyl)-methanone] | 1000 to 2000 | 160 to 161 |
| Cc1nc2c3c(nn2c(C)c1Cl)CN(C(=O)c1ccccc1OCCN(C)C)C3 [Example 8, (6-chloro-5,7-dimethyl-1H,3H-2,4,7a,8-tetraaza-cyclopenta[a]inden-2-yl)-[2-(2-dimethylamino-ethoxy)-phenyl]-methanone] | 200 to 1000 | 156 to 159 |
| Cc1nc2c3c(nn2c(C)c1Cl)CN(C(=O)c1ccccc1OCC(C)C)C3 [Example 30, (6-Chloro-5,7-dimethyl-1H,3H-2,4,7a,8-tetraaza-cyclopenta[a]inden-2-yl)-(2-isobutoxy-phenyl)-methanone] | 1000 to 2000 | 184 to 187 |
| Cc1nc2c3c(nn2c(C)c1Cl)CN(C(=O)c1ccccc1OC(F)(F)F)C3 [Example 14, (6-chloro-5,7-dimethyl-1H,3H-2,4,7a,8-tetraaza-cyclopenta[a]inden-2-yl)-(2-trifluoromethoxy-phenyl)-methanone] | 200 to 1000 | 179 to 181 |
